Laboratory results published in PubChem BioAssay AID330 (DTP/NCI, 2004).
Several values for one entry are separate records, joined by “and”; a condition that tells them apart may be missing. Equal entries are not always repeated. Toxic doses and inconclusive results are not listed. The calls were made as follows: active = survival T/C of 150% or more; inactive = T/C below 125% in these data.

Test system: P388 leukemia ip, CD2F1 mice, survival T/C
Assay: NCI In Vivo Anticancer Drug Screen. Data for tumor model P388 Leukemia (intraperitoneal) in CD2F1 (CDF1) mice
Conditions: endpoint: median survival time, higher = longer survival
In short: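 Mice carrying the transplanted tumor received test compound or vehicle. Survival was recorded in each group, and the value is the treated-group measurement divided by that of the vehicle-treated control group.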

[1] = dose: 60.0 mg/kg/injection, schedule: Q01DX005 (ip), vehicle: Klucel (hydroxypropylcellulose) (HPC)
[2] = dose: 50.0 mg/kg/injection, schedule: Q01DX009 (ip), vehicle: Klucel (hydroxypropylcellulose) (HPC)
[3] = dose: 100.0 mg/kg/injection, schedule: Q01DX009 (ip), vehicle: Klucel (hydroxypropylcellulose) (HPC)
[4] = dose: 200.0 mg/kg/injection, schedule: Q01DX009 (ip), vehicle: Klucel (hydroxypropylcellulose) (HPC)
[5] = dose: 30.0 mg/kg/injection, schedule: Q01DX005 (ip), vehicle: saline with Tween-80
[6] = dose: 60.0 mg/kg/injection, schedule: Q01DX005 (ip), vehicle: saline with Tween-80
[7] = dose: 100.0 mg/kg/injection, schedule: Q04DX002 (ip), vehicle: saline with Tween-80
[8] = dose: 200.0 mg/kg/injection, schedule: Q04DX002 (ip), vehicle: saline with Tween-80
[9] = dose: 400.0 mg/kg/injection, schedule: Q04DX002 (ip), vehicle: saline with Tween-80
[10] = dose: 25.0 mg/kg/injection, schedule: Q01DX009 (ip), vehicle: saline with Tween-80
[11] = dose: 50.0 mg/kg/injection, schedule: Q01DX009 (ip), vehicle: saline with Tween-80
[12] = dose: 100.0 mg/kg/injection, schedule: Q01DX009 (ip), vehicle: saline with Tween-80
[13] = dose: 200.0 mg/kg/injection, schedule: Q01DX009 (ip), vehicle: saline with Tween-80
[14] = dose: 240.0 mg/kg/injection, schedule: Q01DX005 (ip), vehicle: saline with Tween-80

Measured: T/C

CN(c1c(N)nc(N)nc1N)S(=O)(=O)c1ccc([N+](=O)[O-])cc1
inactive: [1] 108 % of control | dose: 120.0 mg/kg/injection, schedule: Q01DX005 (ip), vehicle: Klucel (hydroxypropylcellulose) (HPC) 104 % of control | dose: 240.0 mg/kg/injection, schedule: Q01DX005 (ip), vehicle: Klucel (hydroxypropylcellulose) (HPC) 100 % of control

CN1CCN(CC(=O)N/N=C/c2ccc([N+](=O)[O-])o2)CC1
inactive: [2] 101 % of control and 94 % of control | [3] 99 % of control and 101 % of control | [4] 107 % of control

CC(=O)OC1C(O)C(C)OC(OC2C(OC(=O)C3CCC4C(C3)OC3(CC(OC(=O)/C=C/c5ccccc5)C(C)CO3)C43CO3)OC(CO)C(O)C2OC(C)=O)C1O (centres undefined)
inactive: dose: 1.5 mg/kg/injection, schedule: Q01DX009 (ip), vehicle: saline + alcohol 106 % of control | dose: 3.0 mg/kg/injection, schedule: Q01DX009 (ip), vehicle: saline + alcohol 106 % of control and 116 % of control

CC(=O)c1ccc(Nc2cc(C)nc(N)n2)cc1
inactive: dose: 15.0 mg/kg/injection, schedule: Q01DX005 (ip), vehicle: saline with Tween-80 103 % of control | [5] 104 % of control | [6] 100 % of control and 105 % of control | [7] 112 % of control | [8] 96 % of control | [9] 99 % of control

O=C(O)CSc1cc2c3ccccc3sc2c2ccccc12
inactive: dose: 40.0 mg/kg/injection, schedule: Q01DX005 (ip), vehicle: Klucel (hydroxypropylcellulose) (HPC) 100 % of control | dose: 80.0 mg/kg/injection, schedule: Q01DX005 (ip), vehicle: Klucel (hydroxypropylcellulose) (HPC) 107 % of control | dose: 160.0 mg/kg/injection, schedule: Q01DX005 (ip), vehicle: Klucel (hydroxypropylcellulose) (HPC) 106 % of control

CC1CC(c2ccc(Cl)cc2)C(c2ccc(Cl)cc2)C(=O)O1 (centres undefined)
inactive: [3] 90 % of control

CCOC(=O)/C(C)=C1\N=C(c2ccccc2)OC(=NC2CCCCC2)N1C1CCCCC1
inactive: dose: 50.0 mg/kg/injection, schedule: Q01DX005 (ip), vehicle: saline with Tween-80 96 % of control | dose: 100.0 mg/kg/injection, schedule: Q01DX005 (ip), vehicle: saline with Tween-80 91 % of control | dose: 200.0 mg/kg/injection, schedule: Q01DX005 (ip), vehicle: saline with Tween-80 94 % of control

O=S(=O)(c1ccc(NC(=S)NCc2ccco2)cc1)N1CCCCC1
inactive: [2] 88 % of control | [3] 93 % of control | [4] 92 % of control

CCOC(=O)C/C(C)=N\NC(=O)c1ccncc1
inactive: dose: 37.0 mg/kg/injection, schedule: Q01DX009 (ip), vehicle: saline with Tween-80 97 % of control | dose: 75.0 mg/kg/injection, schedule: Q01DX009 (ip), vehicle: saline with Tween-80 105 % of control | dose: 150.0 mg/kg/injection, schedule: Q01DX009 (ip), vehicle: saline with Tween-80 106 % of control

O=c1[nH]c(=O)n(C2CCCS2)cc1F (centres undefined)
inactive: dose: 37.5 mg/kg/injection, schedule: Q01DX009 (ip), vehicle: suspension in saline 100 % of control | dose: 75.0 mg/kg/injection, schedule: Q01DX009 (ip), vehicle: suspension in saline 100 % of control | dose: 150.0 mg/kg/injection, schedule: Q01DX009 (ip), vehicle: suspension in saline 97 % of control

CSC(=S)c1ccccc1NS(=O)(=O)c1ccccc1
inactive: dose: 100.0 mg/kg/injection, schedule: Q04DX003 (ip), vehicle: saline 113 % of control | dose: 200.0 mg/kg/injection, schedule: Q04DX003 (ip), vehicle: saline 103 % of control | dose: 400.0 mg/kg/injection, schedule: Q04DX003 (ip), vehicle: saline 108 % of control

CCCCCCCCCCCCCCCC(=O)NC(CCCCN)C(=O)NC(CCCCN)C(=O)OCC (centres undefined)
inactive: dose: 12.5 mg/kg/injection, schedule: Q01DX009 (ip), vehicle: saline with Tween-80 101 % of control | [10] 106 % of control

C[Si]1(C)N[Si](C)(C)N[Si](C)(C)N1
inactive: [11] 103 % of control | [12] 95 % of control | [13] 108 % of control

[CH3][Sn]([CH3])([n]1cnc(N)nc1=O)[n]1cnc(N)nc1=O
inactive: dose: 6.25 mg/kg/injection, schedule: Q01DX005 (ip), vehicle: Klucel (hydroxypropylcellulose) (HPC) 108 % of control | dose: 12.5 mg/kg/injection, schedule: Q01DX005 (ip), vehicle: Klucel (hydroxypropylcellulose) (HPC) 120 % of control and 90 % of control | dose: 25.0 mg/kg/injection, schedule: Q01DX005 (ip), vehicle: Klucel (hydroxypropylcellulose) (HPC) 112 % of control and 113 % of control | dose: 50.0 mg/kg/injection, schedule: Q01DX005 (ip), vehicle: Klucel (hydroxypropylcellulose) (HPC) 105 % of control and 118 % of control

CN(C)C=Nc1ccc(Cl)cc1
inactive: [10] 99 % of control | [11] 105 % of control

Nc1ccc2cc3ccc(N)cc3nc2c1
inactive: dose: 12.5 mg/kg/injection, schedule: Q01DX009 (ip), vehicle: saline 122 % of control | dose: 15.0 mg/kg/injection, schedule: Q01DX005 (ip), vehicle: saline 109 % of control | dose: 50.0 mg/kg/injection, schedule: Q01DX009 (ip), vehicle: saline 95 % of control | dose: 50.0 mg/kg/injection, schedule: Q04DX003 (ip), vehicle: saline 86 % of control

CC1OC(O[C@H]2/C=C/C=C/C=C/C=C/C=C/C=C/C=C/[C@H](C)[C@@H](O)[C@@H](C)[C@H](C)OC(=O)C[C@H](O)C[C@H](O)CC[C@@H](O)[C@H](O)C[C@H](O)C[C@]3(O)C[C@H](O)[C@@H](C(=O)O)[C@H](C2)O3)C(O)C(N)C1O (some centres undefined)
inactive: dose: 1.0 mg/kg/injection, schedule: Q01DX009 (ip), vehicle: saline 90 % of control and 95 % of control | dose: 2.0 mg/kg/injection, schedule: Q01DX009 (ip), vehicle: saline 119 % of control and 90 % of control | dose: 4.0 mg/kg/injection, schedule: Q01DX009 (ip), vehicle: saline 98 % of control and 102 % of control and 105 % of control | dose: 8.0 mg/kg/injection, schedule: Q01DX009 (ip), vehicle: saline 100 % of control and 106 % of control and 87 % of control | dose: 16.0 mg/kg/injection, schedule: Q01DX009 (ip), vehicle: saline 122 % of control and 94 % of control

O=C(Oc1ccccc1)C1CC2(C1)CC(C(=O)Oc1ccccc1)C2 (centres undefined)
inactive: [7] 101 % of control | [8] 99 % of control | [9] 99 % of control

COC(=S)NC(=O)c1ccc(Cl)c(Cl)c1
inactive: [10] 108 % of control | [11] 107 % of control | [12] 99 % of control | [13] 110 % of control

CCOC(=O)/C=C1/Nc2ccc(Cl)cc2NC1=O (tested in a mixture with another compound)
inactive: dose: 50.0 mg/kg/injection, schedule: Q01DX009 (ip), vehicle: distilled water + Tween-80 + alcohol 96 % of control | dose: 100.0 mg/kg/injection, schedule: Q01DX009 (ip), vehicle: distilled water + Tween-80 + alcohol 88 % of control | dose: 200.0 mg/kg/injection, schedule: Q01DX009 (ip), vehicle: distilled water + Tween-80 + alcohol 88 % of control

Cc1ccc(Cl)cc1NC(=O)OCCN(C)C(=O)Nc1cc(Cl)ccc1C
inactive: dose: 15.0 mg/kg/injection, schedule: Q01DX005 (ip), vehicle: Klucel (hydroxypropylcellulose) (HPC) 98 % of control | dose: 30.0 mg/kg/injection, schedule: Q01DX005 (ip), vehicle: Klucel (hydroxypropylcellulose) (HPC) 90 % of control | [1] 96 % of control

CN(c1ccccc1)c1c(Cl)c(=O)oc2c1ccc1occc12
inactive: [5] 103 % of control | [6] 106 % of control | dose: 120.0 mg/kg/injection, schedule: Q01DX005 (ip), vehicle: saline 96 % of control | [14] 105 % of control | dose: 240.0 mg/kg/injection, schedule: Q01DX005 (ip), vehicle: saline 103 % of control

Cc1cccc(-n2nc(C(=O)O)c(=O)[nH]c2=O)c1
inactive: dose: 100.0 mg/kg/injection, schedule: Q01DX001 (ip), vehicle: saline with Tween-80 104 % of control | dose: 200.0 mg/kg/injection, schedule: Q01DX001 (ip), vehicle: saline with Tween-80 99 % of control | dose: 400.0 mg/kg/injection, schedule: Q01DX001 (ip), vehicle: saline with Tween-80 95 % of control

CCOC(=O)C1=C(C)O/C(=C/C=C/c2ccccc2)C1=O
inactive: [2] 102 % of control | [3] 98 % of control | [4] 103 % of control

CC(=O)Nc1nc(=O)c2c(n1C(C)=O)N(C(C)=O)C(=O)C2
inactive: [7] 103 % of control | [8] 103 % of control | [9] 100 % of control

CN(C)Cc1cccc[c]1[Sn]([CH3])([Br])[c]1ccccc1CN(C)C
inactive: dose: 3.12 mg/kg/injection, schedule: Q01DX009 (ip), vehicle: saline 101 % of control and 113 % of control and 88 % of control

CCOC(=O)/C=C1\CCC(C)n2c1nccc2=O (centres undefined)
inactive: [6] 97 % of control | dose: 120.0 mg/kg/injection, schedule: Q01DX005 (ip), vehicle: saline with Tween-80 101 % of control | [14] 98 % of control
